molecular target: GST tagged truncated human mutant G2019S LRRK2 (Homo sapiens (Human), UniProt Q5S007, G2019S); assay: LRRK2 Km ATP LanthaScreen Assay; type: biochemical; settings: G2019S LRRK2, 134 μM ATP (Km ATP), mean values
Method in brief: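 Enzyme (GST-tagged, truncated) was preincubated with compound for 15 min at RT in 50 mM Tris pH 8.5, 10 mM MgCl2, 0.01% Brij-35, 1 mM EGTA, 2 mM DTT and 0.05 mM orthovanadate. Fluorescein-LRRKtide and 134 μM ATP (Km) were then added for 90 min. EDTA and Tb-anti-pERM antibody stopped the reaction; the TR-FRET 520/495 ratio gave 4-parameter IC50s, reported as mean pIC50.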

Sequence of GST tagged truncated human mutant G2019S LRRK2 (Q5S007 970-2527 G2019S): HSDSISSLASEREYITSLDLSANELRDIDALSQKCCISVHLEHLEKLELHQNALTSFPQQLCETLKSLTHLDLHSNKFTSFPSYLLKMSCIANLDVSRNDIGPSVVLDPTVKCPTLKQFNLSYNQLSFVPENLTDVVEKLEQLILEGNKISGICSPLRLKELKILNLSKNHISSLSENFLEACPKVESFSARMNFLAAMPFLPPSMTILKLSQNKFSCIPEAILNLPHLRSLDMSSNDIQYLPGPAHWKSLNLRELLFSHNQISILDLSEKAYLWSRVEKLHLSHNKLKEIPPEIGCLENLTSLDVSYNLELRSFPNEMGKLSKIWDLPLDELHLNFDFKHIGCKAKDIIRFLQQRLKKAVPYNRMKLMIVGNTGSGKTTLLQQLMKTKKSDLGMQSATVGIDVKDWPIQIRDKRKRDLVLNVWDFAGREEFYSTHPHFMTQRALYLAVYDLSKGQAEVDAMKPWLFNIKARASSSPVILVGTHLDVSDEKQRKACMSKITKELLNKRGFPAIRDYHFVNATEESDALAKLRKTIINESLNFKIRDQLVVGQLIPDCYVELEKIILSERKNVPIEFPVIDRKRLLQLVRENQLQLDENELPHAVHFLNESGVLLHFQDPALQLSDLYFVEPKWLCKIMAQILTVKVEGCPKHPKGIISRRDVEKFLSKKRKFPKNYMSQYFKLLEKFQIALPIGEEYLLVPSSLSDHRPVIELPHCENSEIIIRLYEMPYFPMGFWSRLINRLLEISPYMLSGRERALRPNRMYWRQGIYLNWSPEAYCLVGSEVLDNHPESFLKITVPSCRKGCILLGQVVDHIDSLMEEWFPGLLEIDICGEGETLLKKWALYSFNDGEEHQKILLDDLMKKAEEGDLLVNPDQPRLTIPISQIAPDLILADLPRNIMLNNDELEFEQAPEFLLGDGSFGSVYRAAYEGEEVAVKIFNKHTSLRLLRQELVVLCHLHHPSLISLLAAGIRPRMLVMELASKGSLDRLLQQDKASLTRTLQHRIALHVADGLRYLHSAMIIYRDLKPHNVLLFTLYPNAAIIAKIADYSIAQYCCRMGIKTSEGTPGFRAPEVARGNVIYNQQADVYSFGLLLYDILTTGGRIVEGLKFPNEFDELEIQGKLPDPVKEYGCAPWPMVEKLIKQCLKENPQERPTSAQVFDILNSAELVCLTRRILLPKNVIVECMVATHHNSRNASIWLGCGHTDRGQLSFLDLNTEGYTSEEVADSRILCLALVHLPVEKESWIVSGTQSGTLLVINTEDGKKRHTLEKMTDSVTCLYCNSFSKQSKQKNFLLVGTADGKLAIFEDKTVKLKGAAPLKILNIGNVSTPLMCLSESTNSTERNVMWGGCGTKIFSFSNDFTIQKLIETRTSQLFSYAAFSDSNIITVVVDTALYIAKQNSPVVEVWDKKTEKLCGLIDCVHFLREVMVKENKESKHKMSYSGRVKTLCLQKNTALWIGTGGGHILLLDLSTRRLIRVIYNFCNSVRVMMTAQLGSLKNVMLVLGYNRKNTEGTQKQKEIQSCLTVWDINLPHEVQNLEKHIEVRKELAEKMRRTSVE

| Structure (SMILES) | LRRK2 pIC50 |
| --- | --- |
| COC(C)(C)Cn1cc(Nc2ncc3cc(Cl)c(C4CCN(C5COC5)CC4)cc3n2)c(C)n1 [Ex-2.16, 6-chloro-N-[1-(2-methoxy-2-methylpropyl)-3-methyl-1H-pyrazol-4-yl]-7-[1-(oxetan-3-yl)piperidin-4-yl]quinazolin-2-amine] | 8.94 |
| N#CC1COCC1N1CCC(c2cc3nc(Nc4cnn(C5CC5)c4Cl)ncc3cc2Cl)CC1 (single isomer, unassigned) [Ex-4.103, (3S,4S) or (3R,4R) or (3S,4R) or (3R,4S) 4-(4-(6-chloro-2-((5-chloro-1-cyclopropyl-1H-pyrazol-4-yl)amino)quinazolin-7-yl)piperidin-1-yl)tetrahydrofuran-3-carbonitrile] | 8.49 |
| N#Cc1cc2cnc(Nc3cnn(C4CC4(F)F)c3Cl)nc2cc1[C@@H]1CCN(C2COC2)C[C@H]1F (single isomer, unassigned) [Ex-6.4, (R)(3S,4S) or (S)(3S,4S) or (R)(3R,4R) or (S)(3R,4R) 2-((5-chloro-1-(2,2-difluorocyclopropyl)-1H-pyrazol-4-yl)amino)-7-(3-fluoro-1-(oxetan-3-yl)piperidin-4-yl)quinazoline-6-carbonitrile] | 9.18 |
| C[C@]1(N2CC[C@@H](c3cc4nc(Nc5cnn(C6CC6)c5Cl)ncc4cc3Cl)[C@H](F)C2)COC[C@H]1O (single isomer, unassigned) [Ex-4.247, (3S,4S)(3S,4S) or (3S,4S)(3R,4R) or (3R,4R)(3S,4S) or (3R,4R)(3R,4R) 4-(4-{6-chloro-2-[(5-chloro-1-cyclopropyl-1H-pyrazol-4-yl)amino]quinazolin-7-yl}-3-fluoropiperidin-1-yl)-4-methyloxolan-3-ol] | >9.20 |
| Cc1cc2cnc(Nc3cnn(C4CC4)c3Cl)nc2cc1[C@@H]1CCN(C2COCC2F)C[C@H]1F (single isomer, unassigned) [Ex-7.9, (3S,4R)(3S,4S) or (3R,4S)(3S,4S) or (3R,4R)(3S,4S) or (3S,4S)(3S,4S) or (3S,4R)(3R,4R) or (3R,4S)(3R,4R) or (3R,4R)(3R,4R) or (3S,4S)(3R,4R) N-(5-chloro-1-cyclopropyl-1H-pyrazol-4-yl)-7-[3-fluoro-1-(4-fluorooxolan-3-yl)piperidin-4-yl]-6-methylquinazolin-2-amine] | 9.04 |
| Cc1cc2cnc(Nc3cnn(C45CC(C4)C5)c3Cl)nc2cc1[C@H]1CCN([C@H]2COC[C@H]2O)C[C@@H]1F (single isomer, unassigned) [Ex-8.36, (3S,4S)(3S,4S) or (3S,4S)(3R,4R) or (3R,4R)(3S,4S) or (3R,4R)(3R,4R) 4-[4-(2-{[1-(bicyclo[1.1.1]pentan-1-yl)-5-chloro-1H-pyrazol-4-yl]amino}-6-methylquinazolin-7-yl)-3-fluoropiperidin-1-yl]oxolan-3-ol] | 8.38 |
| COC12CC(n3ncc(Nc4ncc5cc(Cl)c([C@@H]6CCN([C@@H]7COC[C@@H]7O)C[C@H]6F)cc5n4)c3Cl)(C1)C2 (single isomer, unassigned) [Ex-4.262, (3S,4S)(3S,4S) or (3S,4S)(3R,4R) or (3R,4R)(3S,4S) or (3R,4R)(3R,4R) 4-(4-(6-chloro-2-((5-chloro-1-(3-methoxybicyclo[1.1.1]pentan-1-yl)-1H-pyrazol-4-yl)amino)quinazolin-7-yl)-3-fluoropiperidin-1-yl)tetrahydrofuran-3-ol] | 9.19 |
| Cn1ncc(Nc2ncc3cc(Cl)c([C@@H]4CCN([C@H]5COC[C@H]5O)C[C@H]4F)cc3n2)c1Cl (single isomer, unassigned) [Ex-4.185, (3S,4S)(3S,4S) or (3S,4S)(3R,4R) or (3R,4R)(3S,4S) or (3R,4R)(3R,4R) 4-(4-{6-chloro-2-[(5-chloro-1-methyl-1H-pyrazol-4-yl)amino]quinazolin-7-yl}-3-fluoropiperidin-1-yl)oxolan-3-ol] | 9.17 |
| COCC12CC(n3cc(Nc4ncc5cc(Cl)c(C6CCN(C7(C)COC7)CC6)cc5n4)cn3)(C1)C2 [Ex-2.3, 6-chloro-N-(1-(3-(methoxymethyl)bicyclo[1.1.1]pentan-1-yl)-1H-pyrazol-4-yl)-7-(1-(3-methyloxetan-3-yl)piperidin-4-yl)quinazolin-2-amine] | >9.20 |
| Cc1cc2cnc(Nc3cnn(C4CC4)c3Cl)nc2cc1[C@@H]1CCN([C@@H]2COC[C@@H]2O)C[C@H]1F (single isomer, unassigned) [Ex-4.150, (3S,4S)(3S,4S) or (3S,4S)(3R,4R) or (3R,4R)(3S,4S) or (3R,4R)(3R,4R) 4-(4-{2-[(5-chloro-1-cyclopropyl-1H-pyrazol-4-yl)amino]-6-methylquinazolin-7-yl}-3-fluoropiperidin-1-yl)oxolan-3-ol] | >9.20 |
| Cc1c(Nc2ncc3cc(Cl)c(C4CCN(C(=O)[C@@H](C)O)C4)cc3n2)cnn1C1CC1 (single isomer, unassigned) [Ex-4.187, (2R)(3S) or (2R)(3R) 1-(3-{6-chloro-2-[(1-cyclopropyl-5-methyl-1H-pyrazol-4-yl)amino]quinazolin-7-yl}pyrrolidin-1-yl)-2-hydroxypropan-1-one] | 8.54 |
| CC1(n2ncc(Nc3ncc4cc(Cl)c([C@H]5CCN(C6COC6)C[C@@H]5F)cc4n3)c2Cl)CC1 (single isomer, unassigned) [Ex-4.28, (3S,4S) or (3R,4R) 6-chloro-N-[5-chloro-1-(1-methylcyclopropyl)-1H-pyrazol-4-yl]-7-[3-fluoro-1-(oxetan-3-yl)piperidin-4-yl]quinazolin-2-amine] | >9.20 |
| Cc1c(Nc2ncc3cc(Cl)c(C4CCN(C5CCC(CC#N)C5)CC4)cc3n2)cnn1C1CC1 (single isomer, unassigned) [Ex-4.170, (1R,3R) or (1S,3R) or (1R,3S) or (1S,3S) [3-(4-{6-chloro-2-[(1-cyclopropyl-5-methyl-1H-pyrazol-4-yl)amino]quinazolin-7-yl}piperidin-1-yl)cyclopentyl]acetonitrile] | 8.81 |
| Clc1cc2cnc(Nc3cnn(C4CC4)c3Cl)nc2cc1C1CCN(C2COC(C3CC3)C2)CC1 (single isomer, unassigned) [Ex-4.166, (3R,5R) or (3S,5R) or (3R,5S) or (3S,5S) 6-chloro-N-(5-chloro-1-cyclopropyl-1H-pyrazol-4-yl)-7-[1-(5-cyclopropyloxolan-3-yl)piperidin-4-yl]quinazolin-2-amine] | 9.17 |
| [2H]C1([2H])OC([2H])([2H])C1([2H])N1CCC(c2cc3nc(Nc4cnn(CC(C)(C)O)c4Cl)ncc3cc2Cl)CC1 [Ex-4.58, 1-(5-chloro-4-((6-chloro-7-(1-(oxetan-3-yl-d5)piperidin-4-yl)quinazolin-2-yl)amino)-1H-pyrazol-1-yl)-2-methylpropan-2-ol] | >9.20 |
| Cc1c(Nc2ncc3cc(Cl)c(C4CCN(CC5(O)CCOCC5)CC4)cc3n2)cnn1C1CC1 [Ex-4.210, 4-[(4-{6-chloro-2-[(1-cyclopropyl-5-methyl-1H-pyrazol-4-yl)amino]quinazolin-7-yl}piperidin-1-yl)methyl]oxan-4-ol] | 8.55 |
| O[C@H]1COC[C@H]1N1CCC(c2cc3nc(Nc4cnn(C5CC5)c4Cl)ncc3cc2Cl)CC1 (single isomer, unassigned) [Ex-4.104, (3S,4S) or (3R,4R) 4-(4-(6-chloro-2-((5-chloro-1-cyclopropyl-1H-pyrazol-4-yl)amino)quinazolin-7-yl)piperidin-1-yl)tetrahydrofuran-3-ol] | >9.20 |
| Cc1cc2cnc(Nc3cnn(C4CC4(F)F)c3C)nc2cc1C1CCN([C@@H]2COC[C@@H]2O)CC1 (single isomer, unassigned) [Ex-4.142, (R)(3S,4S) or (S)(3S,4S) or (R)(3R,4R) or (S)(3R,4R) 4-[4-(2-{[1-(2,2-difluorocyclopropyl)-5-methyl-1H-pyrazol-4-yl]amino}-6-methylquinazolin-7-yl)piperidin-1-yl]oxolan-3-ol] | 8.94 |
| O[C@H]1COC[C@H]1N1CC[C@@H](c2cc3nc(Nc4cnn(C56CC(F)(C5)C6)c4Cl)ncc3cc2Cl)[C@H](F)C1 (single isomer, unassigned) [Ex-4.231, (3S,4S)(3S,4S) or (3S,4S)(3R,4R) or (3R,4R)(3S,4S) or (3R,4R)(3R,4R) 4-[4-(6-chloro-2-{[5-chloro-1-(3-fluorobicyclo[1.1.1]pentan-1-yl)-1H-pyrazol-4-yl]amino}quinazolin-7-yl)-3-fluoropiperidin-1-yl]oxolan-3-ol] | >9.20 |

same assay, conditions: G2019S LRRK2, 134 μM ATP (Km ATP), mean values; read-out: LRRK2 pIC50 (converted)

| Structure (SMILES) | IC50 [nM] |
| --- | --- |
| C[C@@]1(N2CCC(c3cc4nc(Nc5cnn(C6CC6)c5Cl)ncc4cc3Cl)CC2)COC[C@@H]1O (single isomer, unassigned) [Ex-1.8, (3R,4R)- or (3S,4S)-4-(4-(6-chloro-2-((5-chloro-1-cyclopropyl-1H-pyrazol-4-yl)amino)quinazolin-7-yl)piperidin-1-yl)-4-methyltetrahydrofuran-3-ol] | 1.55 |
| CC1(N2CCC(n3ncc(Nc4ncc5cc(Cl)c(C6CC67CCC7)cc5n4)c3Cl)CC2)COC1 (single isomer, unassigned) [Ex-2.9, (S) or (R) 6-chloro-N-{5-chloro-1-[1-(3-methyloxetan-3-yl)piperidin-4-yl]-1H-pyrazol-4-yl}-7-(spiro[2.3]hexan-1-yl)quinazolin-2-amine] | 36.3 |
| CCn1ncc(Nc2ncc3cc(Cl)c(C4CC45CC5)cc3n2)c1C (single isomer, unassigned) [Ex-1.2, (S) or (R) 6-chloro-N-(1-ethyl-5-methyl-1H-pyrazol-4-yl)-7-(spiro[2.2]pentan-1-yl)quinazolin-2-amine] | 186 |
